Results reported in US11981658B2, “Substituted aminopyridine compounds as EGFR inhibitors” (YUHAN CORPORATION, priority 2021, dated 2024).
Where a name gives a salt, the structure may show the parent alone. Read-outs that look alike come from different tables or passages of the source.

Key:
[1] = biological target: EGFR Del19/C797S (Homo sapiens, UniProt P00533, C797S/DEL746-750); test: Biochemical EGFR kinase inhibition assay (Lance Ultra TR-FRET), double mutant del19/C797S
Outline: (§1)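 Kinase activity is measured by TR-FRET phosphopeptide detection. Compounds span 0.003 μM to 10 μM; the 1 h reaction at room temperature is quenched with EDTA, then labelled antibody (2 nM) is incubated 60 min before reading.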

[2] = biological target: EGFR wildtype (WT) (Homo sapiens, UniProt P00533); test: Biochemical EGFR kinase inhibition assay (Lance Ultra TR-FRET), wildtype
Outline: as §1

[3] = biological target: EGFR L858R/T790M/C797S (Homo sapiens, UniProt P00533, C797S/L858R/T790M); test: Biochemical EGFR kinase inhibition assay (Lance Ultra TR-FRET), triple mutant L858R/T790M/C797S
EGFR L858R/T790M/C797S, sequence (P00533 25-1210 T790M/C797S/L858R): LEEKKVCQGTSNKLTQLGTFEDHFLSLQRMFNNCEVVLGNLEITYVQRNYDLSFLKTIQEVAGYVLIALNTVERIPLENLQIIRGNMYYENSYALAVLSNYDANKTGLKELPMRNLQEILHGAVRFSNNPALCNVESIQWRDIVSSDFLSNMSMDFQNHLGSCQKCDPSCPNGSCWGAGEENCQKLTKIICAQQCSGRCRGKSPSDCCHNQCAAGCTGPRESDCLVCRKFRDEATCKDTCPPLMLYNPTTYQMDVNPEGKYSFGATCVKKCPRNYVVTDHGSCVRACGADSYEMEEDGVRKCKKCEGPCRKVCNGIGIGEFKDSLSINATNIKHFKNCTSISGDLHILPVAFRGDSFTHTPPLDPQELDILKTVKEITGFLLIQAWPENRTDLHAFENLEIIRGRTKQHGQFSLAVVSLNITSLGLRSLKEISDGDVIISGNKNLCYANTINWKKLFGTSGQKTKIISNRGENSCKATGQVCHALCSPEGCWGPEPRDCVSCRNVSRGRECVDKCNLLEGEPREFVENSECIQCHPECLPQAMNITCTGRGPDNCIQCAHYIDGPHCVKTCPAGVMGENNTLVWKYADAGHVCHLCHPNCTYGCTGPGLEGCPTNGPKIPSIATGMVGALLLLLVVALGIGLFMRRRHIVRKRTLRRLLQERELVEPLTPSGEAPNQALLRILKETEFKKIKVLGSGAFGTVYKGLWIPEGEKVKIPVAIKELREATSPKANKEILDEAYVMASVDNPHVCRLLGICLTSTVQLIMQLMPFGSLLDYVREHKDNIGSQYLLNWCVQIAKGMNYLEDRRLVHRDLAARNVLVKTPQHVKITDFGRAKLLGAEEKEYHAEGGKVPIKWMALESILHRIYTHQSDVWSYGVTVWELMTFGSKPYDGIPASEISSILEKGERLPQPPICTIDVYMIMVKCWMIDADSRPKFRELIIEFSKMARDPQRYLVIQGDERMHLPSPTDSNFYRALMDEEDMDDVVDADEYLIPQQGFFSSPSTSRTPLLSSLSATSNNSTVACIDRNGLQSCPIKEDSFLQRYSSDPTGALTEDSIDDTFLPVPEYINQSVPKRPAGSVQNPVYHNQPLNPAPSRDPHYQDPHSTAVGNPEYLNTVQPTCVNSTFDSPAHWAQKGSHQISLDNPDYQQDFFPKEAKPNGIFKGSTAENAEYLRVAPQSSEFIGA
Outline: as §1

[4] = biological target: EGFR Del19/T790M/C797S (Homo sapiens, UniProt P00533, C797S/DEL746-750/T790M); test: Biochemical EGFR kinase inhibition assay (Lance Ultra TR-FRET), triple mutant del19/T790M/C797S
EGFR Del19/T790M/C797S, sequence (P00533 with tags, fused parts or gaps DEL746-750/T790M/C797S): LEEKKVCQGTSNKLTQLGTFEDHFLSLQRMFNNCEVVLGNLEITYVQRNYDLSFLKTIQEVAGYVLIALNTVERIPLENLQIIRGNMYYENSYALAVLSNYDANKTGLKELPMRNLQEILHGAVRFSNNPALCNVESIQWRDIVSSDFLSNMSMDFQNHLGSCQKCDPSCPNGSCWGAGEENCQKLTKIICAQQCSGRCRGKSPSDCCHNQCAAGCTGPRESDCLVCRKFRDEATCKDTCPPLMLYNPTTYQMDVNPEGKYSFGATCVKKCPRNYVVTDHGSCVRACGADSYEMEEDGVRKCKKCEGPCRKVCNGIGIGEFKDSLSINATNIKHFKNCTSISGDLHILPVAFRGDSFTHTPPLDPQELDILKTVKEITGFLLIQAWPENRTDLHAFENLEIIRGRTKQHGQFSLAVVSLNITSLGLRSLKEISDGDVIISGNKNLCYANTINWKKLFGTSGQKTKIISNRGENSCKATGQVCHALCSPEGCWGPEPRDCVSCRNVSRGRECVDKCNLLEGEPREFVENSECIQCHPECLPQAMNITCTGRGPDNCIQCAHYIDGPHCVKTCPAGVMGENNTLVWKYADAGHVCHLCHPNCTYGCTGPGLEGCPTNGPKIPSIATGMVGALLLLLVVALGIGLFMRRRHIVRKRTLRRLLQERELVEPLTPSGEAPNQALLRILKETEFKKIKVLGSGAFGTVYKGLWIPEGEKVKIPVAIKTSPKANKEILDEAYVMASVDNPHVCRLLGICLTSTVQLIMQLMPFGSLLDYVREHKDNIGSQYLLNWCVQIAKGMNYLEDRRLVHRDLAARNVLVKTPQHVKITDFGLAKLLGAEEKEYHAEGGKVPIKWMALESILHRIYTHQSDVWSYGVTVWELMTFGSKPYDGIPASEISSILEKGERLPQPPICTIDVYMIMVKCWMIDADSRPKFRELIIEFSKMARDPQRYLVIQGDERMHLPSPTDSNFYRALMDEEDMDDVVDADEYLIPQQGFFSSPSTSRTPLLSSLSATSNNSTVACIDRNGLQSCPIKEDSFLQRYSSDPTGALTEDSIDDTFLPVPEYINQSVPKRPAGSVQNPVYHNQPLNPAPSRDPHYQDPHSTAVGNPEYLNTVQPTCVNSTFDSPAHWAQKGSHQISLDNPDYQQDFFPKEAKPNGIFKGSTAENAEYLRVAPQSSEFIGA
Outline: as §1

[5] = biological target: EGFR L858R/C797S (Homo sapiens, UniProt P00533, C797S/L858R); test: Biochemical EGFR kinase inhibition assay (Lance Ultra TR-FRET), double mutant L858R/C797S
EGFR L858R/C797S, sequence (P00533 25-1210 C797S/L858R): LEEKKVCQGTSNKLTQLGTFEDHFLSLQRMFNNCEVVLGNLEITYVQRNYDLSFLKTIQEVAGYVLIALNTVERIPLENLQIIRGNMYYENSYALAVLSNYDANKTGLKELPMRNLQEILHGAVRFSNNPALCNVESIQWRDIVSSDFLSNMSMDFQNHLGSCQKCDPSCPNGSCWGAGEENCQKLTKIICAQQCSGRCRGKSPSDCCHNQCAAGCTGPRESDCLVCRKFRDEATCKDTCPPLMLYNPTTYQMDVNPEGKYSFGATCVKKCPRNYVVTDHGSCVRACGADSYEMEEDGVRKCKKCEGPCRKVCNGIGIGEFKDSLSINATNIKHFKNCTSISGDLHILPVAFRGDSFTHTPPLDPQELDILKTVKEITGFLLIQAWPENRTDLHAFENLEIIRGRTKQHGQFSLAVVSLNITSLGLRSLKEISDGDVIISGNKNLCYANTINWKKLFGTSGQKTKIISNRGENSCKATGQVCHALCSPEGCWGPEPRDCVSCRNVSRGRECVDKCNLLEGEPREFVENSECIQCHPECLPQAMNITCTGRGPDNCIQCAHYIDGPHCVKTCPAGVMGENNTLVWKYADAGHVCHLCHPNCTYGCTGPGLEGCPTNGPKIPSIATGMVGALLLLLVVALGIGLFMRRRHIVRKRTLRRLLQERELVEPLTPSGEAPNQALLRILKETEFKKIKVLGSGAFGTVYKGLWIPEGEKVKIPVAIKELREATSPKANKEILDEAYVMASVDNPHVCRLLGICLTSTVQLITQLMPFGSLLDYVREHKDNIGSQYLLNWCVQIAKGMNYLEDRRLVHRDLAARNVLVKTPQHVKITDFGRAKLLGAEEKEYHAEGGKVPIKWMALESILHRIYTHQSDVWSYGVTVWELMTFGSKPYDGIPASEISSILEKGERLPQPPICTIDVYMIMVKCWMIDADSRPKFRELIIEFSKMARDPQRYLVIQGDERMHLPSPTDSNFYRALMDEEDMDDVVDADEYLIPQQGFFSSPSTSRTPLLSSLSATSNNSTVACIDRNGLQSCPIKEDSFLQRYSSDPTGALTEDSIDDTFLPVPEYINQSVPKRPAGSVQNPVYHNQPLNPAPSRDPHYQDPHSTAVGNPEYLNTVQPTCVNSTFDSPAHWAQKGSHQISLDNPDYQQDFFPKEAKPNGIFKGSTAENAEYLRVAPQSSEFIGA
Outline: as §1

[6] = IC50 Del19/C797S (nM), 100 μM ATP
[7] = Km ATP, read-out: IC50 Del19/C797S (nM), Km ATP
[8] = Km ATP, read-out: IC50 WT (nM), Km ATP
[9] = IC50 L858R/T790M/C797S (nM), 100 μM ATP
[10] = Km ATP, read-out: IC50 L858R/T790M/C797S (nM), Km ATP
[11] = IC50 Del19/T790M/C797S (nM), 100 μM ATP
[12] = Km ATP, read-out: IC50 Del19/T790M/C797S (nM), Km ATP
[13] = IC50 L858R/C797S (nM), 100 μM ATP
[14] = Km ATP, read-out: IC50 L858R/C797S (nM), Km ATP
[15] = ATP at Km, read-out: IC50 Del19/C797S (nM), Km ATP
[16] = ATP at Km, read-out: IC50 WT (nM), Km ATP
[17] = ATP at Km, read-out: IC50 L858R/T790M/C797S (nM), Km ATP
[18] = ATP at Km, read-out: IC50 Del19/T790M/C797S (nM), Km ATP
[19] = ATP at Km, read-out: IC50 L858R/C797S (nM), Km ATP
[20] = Km ATP, read-out: IC50 Del19/C797S (nM) Km ATP
[21] = Km ATP, read-out: IC50 WT (nM) Km ATP
[22] = Km ATP, read-out: IC50 L858R/T790M/C797S (nM) Km ATP
[23] = Km ATP, read-out: IC50 Del19/T790M/C797S (nM) Km ATP
[24] = Km ATP, read-out: IC50 L858R/C797S (nM) Km ATP

EGFR Del19/C797S, sequence (P00533 with tags, fused parts or gaps DEL746-750/C797S): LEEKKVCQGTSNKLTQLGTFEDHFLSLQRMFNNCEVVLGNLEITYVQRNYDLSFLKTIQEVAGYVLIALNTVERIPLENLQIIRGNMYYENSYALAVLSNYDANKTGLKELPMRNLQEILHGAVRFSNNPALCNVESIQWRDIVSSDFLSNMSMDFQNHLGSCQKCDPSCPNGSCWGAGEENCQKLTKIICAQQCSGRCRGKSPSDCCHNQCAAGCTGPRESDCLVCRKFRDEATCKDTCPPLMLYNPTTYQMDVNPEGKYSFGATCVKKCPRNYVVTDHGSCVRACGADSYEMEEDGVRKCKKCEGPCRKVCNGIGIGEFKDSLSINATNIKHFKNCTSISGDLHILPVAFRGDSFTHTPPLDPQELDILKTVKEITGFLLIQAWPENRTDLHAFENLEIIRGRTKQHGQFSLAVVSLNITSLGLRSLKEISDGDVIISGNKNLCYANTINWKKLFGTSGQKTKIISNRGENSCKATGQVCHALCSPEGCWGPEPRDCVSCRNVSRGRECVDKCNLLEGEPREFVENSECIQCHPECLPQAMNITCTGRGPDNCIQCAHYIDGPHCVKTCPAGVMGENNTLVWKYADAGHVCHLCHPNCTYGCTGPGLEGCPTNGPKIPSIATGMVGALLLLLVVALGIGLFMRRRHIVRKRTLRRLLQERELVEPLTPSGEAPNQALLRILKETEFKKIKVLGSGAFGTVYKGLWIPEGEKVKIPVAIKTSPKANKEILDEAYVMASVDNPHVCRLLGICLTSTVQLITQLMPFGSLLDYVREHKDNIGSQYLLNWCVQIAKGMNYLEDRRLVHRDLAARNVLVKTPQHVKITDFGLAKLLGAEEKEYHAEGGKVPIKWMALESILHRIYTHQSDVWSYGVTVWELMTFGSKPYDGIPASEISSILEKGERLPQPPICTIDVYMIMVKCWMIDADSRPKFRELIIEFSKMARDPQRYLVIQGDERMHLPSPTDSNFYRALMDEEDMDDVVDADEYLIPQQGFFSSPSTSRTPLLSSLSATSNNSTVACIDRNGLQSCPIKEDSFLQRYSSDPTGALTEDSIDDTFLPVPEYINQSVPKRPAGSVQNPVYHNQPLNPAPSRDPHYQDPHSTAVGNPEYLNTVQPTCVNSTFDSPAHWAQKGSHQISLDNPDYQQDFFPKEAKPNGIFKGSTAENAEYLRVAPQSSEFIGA

| SMILES | IC50 [1, 6] | IC50 [1, 7] | IC50 ([2]; IC50 WT (nM), 100 μM ATP) | IC50 [2, 8] | IC50 [3, 9] | IC50 [3, 10] | IC50 [4, 11] | IC50 [4, 12] | IC50 [5, 13] | IC50 [5, 14] | IC50 [1, 15] | IC50 [2, 16] | IC50 [3, 17] | IC50 [4, 18] | IC50 [5, 19] | IC50 [1, 20] | IC50 [2, 21] | IC50 [3, 22] | IC50 [4, 23] | IC50 [5, 24] |
| --- | --- | --- | --- | --- | --- | --- | --- | --- | --- | --- | --- | --- | --- | --- | --- | --- | --- | --- | --- | --- |
| C[C@]1(O)CCCN(c2cc(Nc3ccnc(-c4cnn(S(=O)(=O)C5CC5)c4)n3)ncc2C#Cc2cnn(C(F)(F)F)c2)C1 [Example 448, (S)-1-(2-((2-(1-(Cyclopropylsulfonyl)-1H-pyrazol-4-yl)pyrimidin-4-yl)amino)-5-((1-(trifluoromethyl)-1H-pyrazol-4-yl)ethynyl)pyridin-4-yl)-3-methylpiperidin-3-ol] | 44.7 nM | 27.7 nM | > 10000 nM | 300 nM | 6.1 nM | 1.2 nM | 1.7 nM | 1 nM | 503 nM | 5.8 nM |  |  |  |  |  |  |  |  |  |  |
| O=S(=O)(C1CC1)n1cc(-c2nccc(Nc3cc(N[C@H]4CC[C@@H](CO)CC4)c(C#Cc4cnn(C(F)F)c4)cn3)n2)cn1 [Example 308, ((1s,4s)-4-((2-((2-(1-(Cyclopropylsulfonyl)-1H-pyrazol-4-yl)pyrimidin-4-yl)amino)-5-((1-(difluoromethyl)-1H-pyrazol-4-yl)ethynyl)pyridin-4-yl)amino)cyclohexyl)methanol] | 2.8 nM |  | > 10000 nM |  | 2.3 nM |  | 3.5 nM |  | 75 nM |  | 1.6 nM | 39.4 nM | 3.2 nM | 4.8 nM | 3.7 nM |  |  |  |  |  |
| Cn1cc(C#Cc2cnc(Nc3ccnc(-c4cnn(S(=O)(=O)C5CC5)c4)n3)cc2N2CCC(NCC(F)(F)F)CC2)cn1 [Example 135, 2-(1-(Cyclopropylsulfonyl)-1H-pyrazol-4-yl)-N-(5-((1-methyl-1H-pyrazol-4-yl)ethynyl)-4-(4-((2,2,2-trifluoroethyl)amino)piperidin-1-yl)pyridin-2-yl)pyrimidin-4-amine] | 3 nM |  | > 10000 nM |  | 5.2 nM |  | 2.6 nM |  | 40.6 nM |  |  |  |  |  |  | 1.6 nM | 28.7 nM | 0.6 nM | 0.7 nM | 4.1 nM |
| Cn1cc(C#Cc2cnc(Nc3ccnc(-c4cnn(S(=O)(=O)C5CC5)c4)n3)cc2N[C@H]2CCC[C@H](O)C2)cn1 [Example 43, (1 S,3S)-3-((2-((2-(1-(Cyclopropylsulfonyl)-1H-pyrazol-4-yl)pyrimidin-4-yl)amino)-5-((1-methyl-1H-pyrazol-4-yl)ethynyl)pyridin-4-yl)amino)cyclohexan-1-ol] | 1.7 nM |  | > 10000 nM |  | 0.7 nM |  | 0.6 nM |  | 8.9 nM |  |  |  |  |  |  | 1.4 nM | 20.3 nM | 0.2 nM | 0.5 nM | 1.1 nM |
| CC1(CO)CCN(c2cc(Nc3ccnc(-c4cnn(S(=O)(=O)C5CC5)c4)n3)ncc2C#Cc2cnn(C3CC3)c2)CC1 [Example 47, (1-(5-((1-Cyclopropyl-1H-pyrazol-4-yl)ethynyl)-2-((2-(1-(cyclopropylsulfonyl)-1H-pyrazol-4-yl)pyrimidin-4-yl)amino)pyridin-4-yl)-4-methylpiperidin-4-yl)methanol] | 1.6 nM |  | 1740 nM |  | 3.5 nM |  | 2.8 nM |  | 7.8 nM |  |  |  |  |  |  | 2.6 nM | 19.6 nM | 1.4 nM | 2.1 nM | 3.3 nM |
| CN(C)CC1(F)CCN(c2cc(Nc3ccnc(-c4cnn(S(=O)(=O)C5CC5)c4)n3)ncc2C#Cc2cnn(C)c2)CC1 [Example 293, 2-(1-(Cyclopropylsulfonyl)-1H-pyrazol-4-yl)-N-(4-(4-((dimethylamino)methyl)-4-fluoropiperidin-1-yl)-5-((1-methyl-1H-pyrazol-4-yl)ethynyl)pyridin-2-yl)pyrimidin-4-amine formate] | 6.5 nM |  | > 10000 nM |  | 1.3 nM |  | 0.4 nM |  | 34.1 nM |  | 2.3 nM | 8.6 nM | 0.03 nM | 0.1 nM | 4.2 nM |  |  |  |  |  |
| Cn1cc(C#Cc2cnc(Nc3ccnc(-c4cnn(S(=O)(=O)C5CC5)c4)n3)cc2N2CCC(NCCF)CC2)cn1 [Example 129, 2-(1-(Cyclopropylsulfonyl)-1H-pyrazol-4-yl)-N-(4-(4-((2-fluoroethyl)amino)piperidin-1-yl)-5-((1-methyl-1H-pyrazol-4-yl)ethynyl)pyridin-2-yl)pyrimidin-4-amine] | 4.4 nM |  | > 10000 nM |  | 0.8 nM |  | 0.5 nM |  | 23.8 nM |  |  |  |  |  |  |  |  |  |  |  |
| CN(C)Cc1ccc(C#Cc2cnc(Nc3ccnc(-c4cnn(S(=O)(=O)C5CC5)c4)n3)cc2N2CCC(C)(CO)CC2)cn1 [Example 278, (1-(2-((2-(1-(Cyclopropylsulfonyl)-1H-pyrazol-4-yl)pyrimidin-4-yl)amino)-5-((6-((dimethylamino)methyl)pyridin-3-yl)ethynyl)pyridin-4-yl)-4-methylpiperidin-4-yl)methanol] | 0.6 nM |  | 108 nM |  | 0.3 nM |  | 0.6 nM |  | 0.5 nM |  | 0.2 nM | 0.7 nM | 0.1 nM | 0.3 nM | 0.5 nM |  |  |  |  |  |
| Cn1cnc(C#Cc2cnc(Nc3ccnc(-c4cnn(S(=O)(=O)C5CC5)c4)n3)cc2N[C@H]2CC[C@@H](O)CC2)n1 [Example 167, (1s,4s)-4-((2-((2-(1-(Cyclopropylsulfonyl)-1H-pyrazol-4-yl)pyrimidin-4-yl)amino)-5-((1-methyl-1,2,4-triazol-3-yl)ethynyl)pyridin-4-yl)amino)cyclohexan-1-ol] | 88.8 nM |  | > 10000 nM |  | 15.4 nM |  | 3.4 nM |  | 532 nM |  | 81.8 nM | 279 nM | 3.5 nM | 3.7 nM | 24 nM |  |  |  |  |  |
| CC1(CO)CCN(c2cc(Nc3ccnc(N4CCN(S(=O)(=O)C5CC5)CC4)n3)ncc2C#Cc2cnn(C(F)(F)F)c2)CC1 [Example 449, (1-(2-((2-(4-(Cyclopropylsulfonyl)piperazin-1-yl)pyrimidin-4-yl)amino)-5-((1-(trifluoromethyl)-1H-pyrazol-4-yl)ethynyl)pyridin-4-yl)-4-methylpiperidin-4-yl)methanol] |  | 268 nM |  | 564 nM |  | 51.7 nM |  | 165 nM |  | 69.3 nM |  |  |  |  |  |  |  |  |  |  |
| O=S(=O)(C1CC1)n1cc(-c2nccc(Nc3cc(N4CCC(CO)CC4)c(C#Cc4cnn(C5CC5(F)F)c4)cn3)n2)cn1 (centres unmarked) [Example 83, (1-(2-((2-(1-(Cyclopropylsulfonyl)-1H-pyrazol-4-yl)pyrimidin-4-yl)amino)-5-((1-(2,2-difluorocyclopropyl)-1H-pyrazol-4-yl)ethynyl)pyridin-4-yl)piperidin-4-yl)methanol] | 4 nM |  | > 10000 nM |  | 2.5 nM |  | 1.3 nM |  | 24.4 nM |  |  |  |  |  |  |  |  |  |  |  |
